# Like-named read-outs stand apart in the source and are kept apart here.
# Assays:
# [1] = target: Human cGAS amino acids 155-522 (Homo sapiens (Human), UniProt Q8N884); assay: cGAS biochemical activity assay (ATP remaining, Kinase-Glo Max luminescence)
# [2] = system: cGAS/STING pathway in THP1 cells; assay: THP1 cell-based cGAS/STING pathway activity assay (IRF-3-linked luciferase reporter); details: Homo sapiens, THP-1
# In short: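 THP1 cells carrying an IRF-3-driven luciferase reporter were read across a range of compound concentrations, and IC50 values were derived from these concentration responses; the assay upper limit was 100 μM.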
# [3] = human cGAS 155-522, ATP remaining (Kinase-Glo Max), read-out: cGAS IC50
# Sequence of Human cGAS amino acids 155-522 (Q8N884 157-522): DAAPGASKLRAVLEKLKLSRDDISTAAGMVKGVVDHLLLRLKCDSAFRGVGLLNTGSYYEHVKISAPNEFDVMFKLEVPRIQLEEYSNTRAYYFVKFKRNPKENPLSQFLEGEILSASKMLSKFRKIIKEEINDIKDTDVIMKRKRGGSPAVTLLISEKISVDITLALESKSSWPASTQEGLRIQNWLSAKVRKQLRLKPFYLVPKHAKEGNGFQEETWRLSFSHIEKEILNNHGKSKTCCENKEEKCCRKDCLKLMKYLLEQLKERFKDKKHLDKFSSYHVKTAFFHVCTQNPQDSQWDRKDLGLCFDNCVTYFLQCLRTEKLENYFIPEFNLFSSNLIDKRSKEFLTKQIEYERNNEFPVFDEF
"IC50 [1, 3] [µM]",IC50 [2] [µM],Compound,"IC50 ([1]; cGAS IC50, human cGAS 155-522, ATP remaining (Kinase-Glo Max)) [µM]"
20 to 250,> 100,"Cc1[nH]c2c(-c3ccccc3)c(C(F)(F)F)nn2c(=O)c1-c1nc2c(S(C)(=O)=O)cccc2o1 [Compound C1054, 5-methyl-6-(4-(methylsulfonyl)benzo[d]oxazol-2-yl)-3-phenyl-2-(trifluoromethyl)pyrazolo[1,5-a]pyrimidin-7(4H)-one]",–
< 20,> 100,"COc1cccc2nc(-c3c(C)[nH]c4c(-c5ccccc5)c(C(F)(F)F)nn4c3=O)cn12 [Compound C1057, 6-(5-methoxyimidazo[1,2-a]pyridin-2-yl)-5-methyl-3-phenyl-2-(trifluoromethyl)pyrazolo[1,5-a]pyrimidin-7(4H)-one]",–
< 20,> 100,"COc1ccnc2oc(-c3c(C)[nH]c4c(-c5ccccc5)c(C(F)(F)F)nn4c3=O)nc12 [Compound C1058, 6-(7-methoxyoxazolo[5,4-b]pyridin-2-yl)-5-methyl-3-phenyl-2-(trifluoromethyl)pyrazolo[1,5-a]pyrimidin-7(4H)-one]",–
< 20,> 100,"Cc1[nH]c2c(-c3ccccc3)c(C(F)(F)F)nn2c(=O)c1-c1nc2c(o1)CCCNC2=O [Compound C1059, 2-(5-methyl-7-oxo-3-phenyl-2-(trifluoromethyl)-4,7-dihydropyrazolo[1,5-a]pyrimidin-6-yl)-5,6,7,8-tetrahydro-4H-oxazolo[4,5-c]azepin-4-one]",–
< 20,< 20,"Cc1[nH]c2c(-c3ccccc3)c(C(F)(F)F)nn2c(=O)c1-c1nc2c(C)cccc2o1 [Compound C1060, 5-methyl-6-(4-methylbenzo[d]oxazol-2-yl)-3-phenyl-2-(trifluoromethyl)pyrazolo[1,5-a]pyrimidin-7(4H)-one]",–
20 to 250,20 to 100,"Cc1[nH]c2c(-c3ccccc3)c(C(F)(F)F)nn2c(=O)c1-c1nc2c(OCCN)cccc2o1 [Compound C1061, 6-(4-(2-aminoethoxy)benzo[d]oxazol-2-yl)-5-methyl-3-phenyl-2-(trifluoromethyl)pyrazolo[1,5-a]pyrimidin-7(4H)-one]",–
< 20,> 100,"CC(=O)NCCOc1cccc2oc(-c3c(C)[nH]c4c(-c5ccccc5)c(C(F)(F)F)nn4c3=O)nc12 [Compound C1062, N-(2-((2-(5-methyl-7-oxo-3-phenyl-2-(trifluoromethyl)-4,7-dihydropyrazolo[1,5-a]pyrimidin-6-yl)benzo[d]oxazol-4-yl)oxy)ethyl)acetamide]",–
20 to 250,< 20,"COc1nn2c(=O)c(-c3nc4c(OC)cccc4o3)c(C)[nH]c2c1-c1ccccc1 [Compound C1064, 2-methoxy-6-(4-methoxybenzo[d]oxazol-2-yl)-5-methyl-3-phenylpyrazolo[1,5-a]pyrimidin-7(4H)-one]",–
20 to 250,> 100,"COc1cccc2nc(-c3c(C)[nH]c4c(-c5ccccc5)c(C(F)(F)F)nn4c3=O)n(C)c12 [Compound C1065, 6-(7-methoxy-1-methyl-1H-benzo[d]imidazol-2-yl)-5-methyl-3-phenyl-2-(trifluoromethyl)pyrazolo[1,5-a]pyrimidin-7(4H)-one]",–
< 20,> 100,"Cc1[nH]c2c(-c3ccccc3)c(C(F)(F)F)nn2c(=O)c1-c1nc2c(OCCNS(C)(=O)=O)cccc2o1 [Compound C1066, N-(2-((2-(5-methyl-7-oxo-3-phenyl-2-(trifluoromethyl)-4,7-dihydropyrazolo[1,5-a]pyrimidin-6-yl)benzo[d]oxazol-4-yl)oxy)ethyl)methanesulfonamide]",–
< 20,< 20,"COc1cccc2sc(-c3c(C)[nH]c4c(-c5ccccc5)c(C(F)(F)F)nn4c3=O)nc12 [Compound C1070, 6-(4-methoxybenzo[d]thiazol-2-yl)-5-methyl-3-phenyl-2-(trifluoromethyl)pyrazolo[1,5-a]pyrimidin-7(4H)-one]",–
< 20,> 100,"Cc1[nH]c2c(-c3ccccc3)c(C(F)(F)F)nn2c(=O)c1-c1nc2c(C#N)cccc2o1 [Compound C1075, 2-(5-methyl-7-oxo-3-phenyl-2-(trifluoromethyl)-4,7-dihydropyrazolo[1,5-a]pyrimidin-6-yl)benzo[d]oxazole-4-carbonitrile]",–
< 20,< 20,"Cc1[nH]c2c(-c3ccccc3)c(C(F)(F)F)nn2c(=O)c1-c1nc2c(F)cccc2o1 [Compound C1076, 6-(4-fluorobenzo[d]oxazol-2-yl)-5-methyl-3-phenyl-2-(trifluoromethyl)pyrazolo[1,5-a]pyrimidin-7(4H)-one]",–
< 20,< 20,"Cc1[nH]c2c(-c3ccccc3)c(C(F)(F)F)nn2c(=O)c1-c1nc2c(N(C)C)cccc2o1 [Compound C1078, 6-(4-(dimethylamino)benzo[d]oxazol-2-yl)-5-methyl-3-phenyl-2-(trifluoromethyl)pyrazolo[1,5-a]pyrimidin-7(4H)-one]",–
> 250,< 20,"COc1cccc2oc(-c3c[nH]c4c(-c5ccccc5)c(C(F)(F)F)nn4c3=O)nc12 [Compound C1079, 6-(4-methoxybenzo[d]oxazol-2-yl)-3-phenyl-2-(trifluoromethyl)pyrazolo[1,5-a]pyrimidin-7(4H)-one]",–
< 20,< 20,"COc1[nH]c2c(-c3ccccc3)c(C(F)(F)F)nn2c(=O)c1-c1nc2c(OC)cccc2o1 [Compound C1084, 5-methoxy-6-(4-methoxybenzo[d]oxazol-2-yl)-3-phenyl-2-(trifluoromethyl)pyrazolo[1,5-a]pyrimidin-7(4H)-one]",–
< 20,> 100,"COc1cccc2oc(-c3c(N)[nH]c4c(-c5ccccc5)c(C(F)(F)F)nn4c3=O)nc12 [Compound C1085, 5-amino-6-(4-methoxybenzo[d]oxazol-2-yl)-3-phenyl-2-(trifluoromethyl)pyrazolo[1,5-a]pyrimidin-7(4H)-one]",–
< 20,20 to 100,"COc1c(C)ccc2oc(-c3c(C)[nH]c4c(-c5ccccc5)c(C(F)(F)F)nn4c3=O)nc12 [Compound C1093, 6-(4-methoxy-5-methylbenzo[d]oxazol-2-yl)-5-methyl-3-phenyl-2-(trifluoromethyl)pyrazolo[1,5-a]pyrimidin-7(4H)-one]",–
< 20,> 100,"COc1c(Cl)ccc2oc(-c3c(C)[nH]c4c(-c5ccccc5)c(C(F)(F)F)nn4c3=O)nc12 [Compound C1095, 6-(5-chloro-4-methoxybenzo[d]oxazol-2-yl)-5-methyl-3-phenyl-2-(trifluoromethyl)pyrazolo[1,5-a]pyrimidin-7(4H)-one]",–
< 20,> 100,"COc1cncc2oc(-c3c(C)[nH]c4c(-c5ccccc5)c(C(F)(F)F)nn4c3=O)nc12 [Compound C1096, 6-(7-methoxyoxazolo[5,4-c]pyridin-2-yl)-5-methyl-3-phenyl-2-(trifluoromethyl)pyrazolo[1,5-a]pyrimidin-7(4H)-one]",–
< 20,> 100,"Cc1[nH]c2c(-c3ccccc3)c(C(F)(F)F)nn2c(=O)c1-c1nc2c([S+](C)[O-])cccc2o1 (stereo not shown) [Compound C1097, 5-methyl-6-(4-(methylsulfinyl)benzo[d]oxazol-2-yl)-3-phenyl-2-(trifluoromethyl)pyrazolo[1,5-a]pyrimidin-7(4H)-one]",–
< 20,20 to 100,"COc1ccc(C#N)c2oc(-c3c(C)[nH]c4c(-c5ccccc5)c(C(F)(F)F)nn4c3=O)nc12 [Compound C1100, 4-methoxy-2-(5-methyl-7-oxo-3-phenyl-2-(trifluoromethyl)-4,7-dihydropyrazolo[1,5-a]pyrimidin-6-yl)benzo[d]oxazole-7-carbonitrile]",–
< 20,20 to 100,"CCOC(=O)c1coc(-c2c(C)[nH]c3c(-c4ccccc4)c(C(F)(F)F)nn3c2=O)n1 [Compound C1101, ethyl 2-(5-methyl-7-oxo-3-phenyl-2-(trifluoromethyl)-4,7-dihydropyrazolo[1,5-a]pyrimidin-6-yl)oxazole-4-carboxylate]",–
< 20,20 to 100,"COc1cccc2oc(-c3c(CO)[nH]c4c(-c5ccccc5)c(C(F)(F)F)nn4c3=O)nc12 [Compound C1103, 5-(hydroxymethyl)-6-(4-methoxybenzo[d]oxazol-2-yl)-3-phenyl-2-(trifluoromethyl)pyrazolo[1,5-a]pyrimidin-7(4H)-one]",–
< 20,> 100,"Cc1[nH]c2c(-c3ccccc3)c(C(F)(F)F)nn2c(=O)c1-c1nc(CO)co1 [Compound C1104, 6-(4-(hydroxymethyl)oxazol-2-yl)-5-methyl-3-phenyl-2-(trifluoromethyl)pyrazolo[1,5-a]pyrimidin-7(4H)-one]",–
< 20,20 to 100,"Cc1[nH]c2c(-c3ccccc3)c(C(F)(F)F)nn2c(=O)c1-c1nc2c(=O)n(C)ccc2o1 [Compound C1106, 5-methyl-2-(5-methyl-7-oxo-3-phenyl-2-(trifluoromethyl)-4,7-dihydropyrazolo[1,5-a]pyrimidin-6-yl)oxazolo[4,5-c]pyridin-4(5H)-one]",–
> 250,< 20,"COc1cccc2oc(-c3c(C)[nH]c4c(-c5ccc(F)cc5)c(C(F)(F)F)nn4c3=O)nc12 [Compound C1107, 3-(4-fluorophenyl)-6-(4-methoxybenzo[d]oxazol-2-yl)-5-methyl-2-(trifluoromethyl)pyrazolo[1,5-a]pyrimidin-7(4H)-one]",–
< 20,> 100,"COCc1coc(-c2c(C)[nH]c3c(-c4ccccc4)c(C(F)(F)F)nn3c2=O)n1 [Compound C1108, 6-(4-(methoxymethyl)oxazol-2-yl)-5-methyl-3-phenyl-2-(trifluoromethyl)pyrazolo[1,5-a]pyrimidin-7(4H)-one]",–

Compound,"IC50 [1, 3] [µM]",IC50 [2] [µM],"IC50 ([1]; cGAS IC50, human cGAS 155-522, ATP remaining (Kinase-Glo Max)) [µM]"
"Cc1[nH]c2c(-c3ccccc3)c(C(F)(F)F)nn2c(=O)c1-c1nc2c(OC(=O)N(C)C)cccc2o1 [Compound C1088, 2-(5-methyl-7-oxo-3-phenyl-2-(trifluoromethyl)-4,7-dihydropyrazolo[1,5-a]pyrimidin-6-yl)benzo[d]oxazol-4-yl dimethylcarbamate]",–,20 to 100,< 20

# From patent publication US10738056B2 (Aduro BioTech, Inc., priority 2017, dated 2020)
